Where two headings read alike, the source gives them in different places.
Experiments:
[1] = system: HCT 116 cell line; test: Inhibition of Cell Growth (MTT tetrazolium salt assay); assay type: cell-based; settings: Homo sapiens
In short: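 HCT 116 cells in McCoy's 5A were dosed 4 h after plating, in 0.5% (v/v) DMSO, then held 4–6 days at 37 °C, 5% CO2. MTT at 0.2 mg/mL final for 4 h; DMSO-solubilized formazan read at 540 nm. IC50 taken from the linear part of a semi-log plot versus DMSO-only controls.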

[2] = target: T1, VEGF-R2 (Homo sapiens, UniProt P35968, DEL940-989/E990V); test: VEGF-R2 Assay (coupled spectrophotometric FLVK-P / ELISA); assay type: biochemical; settings: for inhibition at 1 µM: read-out: VEGF % Inhib. at 1 μM
T1 construct: VEGF-R2Δ50 contains residues 806–939 and 990–1171; made in house; host or cells: baculovirus/insect cells
T1 sequence (P35968 with tags, fused parts or gaps DEL940-989/E990V limits assumed): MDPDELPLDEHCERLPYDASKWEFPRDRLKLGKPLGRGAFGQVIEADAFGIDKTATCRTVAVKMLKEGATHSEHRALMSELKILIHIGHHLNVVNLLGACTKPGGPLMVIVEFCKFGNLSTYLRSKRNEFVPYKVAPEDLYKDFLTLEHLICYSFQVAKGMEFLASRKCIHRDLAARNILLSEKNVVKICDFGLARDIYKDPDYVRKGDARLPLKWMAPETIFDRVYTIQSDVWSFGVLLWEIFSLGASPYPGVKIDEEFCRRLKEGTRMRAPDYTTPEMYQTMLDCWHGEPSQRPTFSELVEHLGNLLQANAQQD
Source text: VEGF-R2 Construct for Assay
This construct determines the ability of a test compound to inhibit tyrosine kinase activity. A construct (VEGF-R2Δ50) of the cytosolic domain of human vascular endothelial growth factor receptor 2 (VEGF-R2) lacking the 50 central residues of the 68 residues of the kinase insert domain was expressed in a baculovirus/insect cell system. Of the 1356 residues of full-length VEGF-R2, VEGF-R2Δ50 contains residues 806–939 and 990–1171, and also one point mutation (E990V) within the kinase insert domain relative to wild-type VEGF-R2. […] See Parast et al., Biochemistry, 37,16788–16801 (1998).
Coupled Spectrophotometric (FLVK-P) Assay
The production of ADP from ATP that accompanies phosphoryl transfer was coupled to oxidation of NADH using phosphoenolpyruvate (PEP) and a system having pyruvate kinase (PK) and lactic dehydrogenase (LDH). The oxidation of NADH was monitored by following the decrease of absorbance at 340 nm (e340=6.22 cm^1 mM^−1) using a Beckman DU 650 spectrophotometer. Assay conditions for phosphorylated VEGF-R2A50 (indicated as FLVK-P in the tables below) were the following: 1 mM PEP; 250 μM NADH; 50 units of LDH/mL; 20 units of PK/mL; 5 mM DTT; 5.1 mM poly(E4Y1); 1 mM ATP; and 25 mM MgCl2 in 200 mM Hepes, pH 7.5. Assay conditions for unphosphorylated VEGF-R2A50 (indicated as FLVK in the tables) were the following: 1 mM PEP; 250 μM NADH; 50 units of LDH/mL; 20 units of PK/mL; 5 mM DTT; 20 mM poly(E4Y1); 3 mM ATP; and 60 mM MgCl2 and 2 mM MnCl2 in 200 mM Hepes, pH 7.5. Assays were initiated with 5 to 40 nM of enzyme. Ki values were determined by measuring enzyme activity in the presence of varying concentrations of test compounds. The data were analyzed using Enzyme Kinetic and Kaleidagraph software.
Formation of phosphogastrin was monitored using biotinylated gastrin peptide (1–17) as substrate. Biotinylated phosphogastrin was immobilized using streptavidin coated 96-well microtiter plates followed by detection using anti-phosphotyrosine-antibody conjugated to horseradish peroxidase. The activity of horseradish peroxidase was monitored using 2,2′-azino-di-[3-ethylbenzathiazoline sulfonate(6)] diammonium salt (ABTS). Typical assay solutions contained: 2 μM biotinylated gastrin peptide; 5 mM DTT; 20 μM ATP; 26 mM MgCl2; and 2 mM MnCl2 in 200 mM Hepes, pH 7.5. The assay was initiated with 0.8 nM of phosphorylated VEGF-R2Δ50. Horseradish peroxidase activity was assayed using ABTS, 10 mM. The horseradish peroxidase reaction was quenched by addition of acid (H2SO4), followed by absorbance reading at 405 nm. Ki values were determined by measuring enzyme activity in the presence of varying concentrations of test compounds. The data were analyzed using Enzyme Kinetic and Kaleidagraph software.

[3] = HCT 116, MTT, 50% inhibition of growth, read-out: HCT 116 IC50
[4] = HCT 116, MTT, IC90, read-out: HCT 116 IC90
[5] = HCT-116, read-out: HCT 116 IC50 (uM)
[6] = HCT-116, read-out: HCT 116 IC90 (uM)

Structure (SMILES) | IC50 [1, 3] | IC90 [1, 4] | inhibition at 1 µM [2] | Ki [2] | IC50 [1, 5] | IC90 [1, 6]
CS(=O)(=O)Nc1ccc2nc(-c3n[nH]c4ccc(-c5cncc6ccccc56)cc34)[nH]c2c1 [Example 70, N-[2-(5-Isoquinolin-4-yl-1H-indazol-3-yl)-3H-benzoimidazol-5-yl]-methanesulfonamide] | 0.18 µM | 0.44 µM | 45% |  |  | 
CCNCc1cccc2[nH]c(-c3n[nH]c4ccc(-c5cncc6ccccc56)cc34)nc12 [Example 37, Ethyl-[2-(5-isoquinolin-4-yl-1H-indazol-3-yl)-1H-benzoimidazol-4-ylmethyl]-amine] |  |  | 17% |  | 0.041 µM | 0.12 µM
CCc1c(-c2ccncc2)cncc1-c1ccc2[nH]nc(-c3nc4ccccc4[nH]3)c2c1 [Example 61, 5-[3-(1H-Benzoimidazol-2yl)-1H-indazol-5-yl]-4ethyl-[3,4′]bipyridinyl] | 0.22 µM | 0.5 µM | 18% |  |  | 
Cc1c(-c2cccnc2)cncc1-c1ccc2[nH]nc(-c3nc4ccccc4[nH]3)c2c1 [Example 58] | 0.46 µM | 1.3 µM | 17% |  |  | 
CC(C)NCc1cccc2[nH]c(-c3n[nH]c4ccc(-c5cncc6ccccc56)cc34)nc12 [Example 38, Isopropyl-[2-(5-isoquinolin-4-yl-1H-indazol-3-yl)-1H-benzoimidazol-4-ylmethyl]-amine] |  |  | 9% |  | 0.029 µM | 0.06 µM
c1ccc2[nH]c(-c3n[nH]c4ccc(-c5cccc6[nH]ccc56)cc34)nc2c1 [Example 48, 3-(1H-Benzoimidazol-2-yl)-5-(1H-indol-4-yl)-1H-indazole] | 3.9 µM | 5 µM |  |  |  | 
CCN(CC)Cc1cccc2[nH]c(-c3n[nH]c4ccc(-c5cncc6ccccc56)cc34)nc12 [Example 36, Diethyl-[2-(5-isoquinolin-4-yl-1H-indazol-3-yl)-1H-benzoimidazol-4-ylmethyl]-amine] | 0.024 µM | 0.06 µM | 15% |  |  | 
Cc1c(-c2ccncc2)cncc1-c1ccc2[nH]nc(-c3nc4ccc(NS(C)(=O)=O)cc4[nH]3)c2c1 [Example 71, N-{2-[5-(4-methyl-[3,4′]bipyridinyl-5-yl)-1H-indazol-3-yl)-3H-benzoimidazol-5-yl]-methanesulfonamide] | 0.7 µM | 2 µM | 42% |  |  | 
c1ccc2[nH]c(-c3n[nH]c4ccc(-c5cncc6c5CCCN6)cc34)nc2c1 [Example 54] | 0.079 µM | 0.23 µM | 46% |  |  | 
Cc1c(-c2ccncc2)cncc1-c1ccc2[nH]nc(-c3nc4ccccc4[nH]3)c2c1 [Example 53, 5-[3-(1H-Benzoimidazol-2-yl)-1H-indazol-5-yl]-4-methyl-[3,4′]bipyridinyl] | 0.2 µM | 0.75 µM | 32% |  |  | 
O=C(Nc1cccc2c(-c3ccc4[nH]nc(-c5nc6ccccc6[nH]5)c4c3)cncc12)c1cccnc1 [Example 55, N-{4-[3-(1H-Benzoimidazol-2-yl)-1H-indazol-5-yl]-isoquinolin-8-yl}-nicotinamide] | 1.5 µM | 5 µM | 32% |  |  | 
Cc1c(-c2cccc(CO)c2)cncc1-c1ccc2[nH]nc(-c3nc4ccccc4[nH]3)c2c1 [Example 69, (3-{5-[3-(1H-Benzoimidazol-2-yl)-1H-indazol-5-yl]-4-methyl-pyridin-3-yl}-phenyl)-methanol] | 0.69 µM | 2.1 µM | 38% |  |  | 
CN(C)Cc1cccc2[nH]c(-c3n[nH]c4ccc(-c5cncc6ccccc56)cc34)nc12 [Example 31, [2-(5-Isoquinolin-4-yl-1H-indazol-3-yl)-1H-benzoimidazol-4-ylmethyl]-dimethyl-amine] |  |  | 17% | 2900 nM |  | 

Now from value to molecule, other results behind:

IC50 [1, 3] | IC90 [1, 4] | inhibition at 1 µM [2] | Ki [2] | Structure (SMILES) | IC50 [1, 5] | IC90 [1, 6]
0.5 µM | 2.2 µM | 38% |  | Clc1ccncc1-c1ccc2[nH]nc(-c3nc4ccccc4[nH]3)c2c1 [Example 52, 3-(1H-Benzoimidazol-2-yl)-5-(4-chloro-pyridin-3-yl)-1H-indazole] |  | 
3 µM | 5 µM | 36% |  | C(=C\c1n[nH]c2ccc(-c3cncc4ccccc34)cc12)/c1ccccc1 [Example 16] |  | 
0.15 µM | 0.53 µM | 24% |  | Cc1c(CO)cncc1-c1ccc2[nH]nc(-c3nc4ccccc4[nH]3)c2c1 [Example 72, {5-[3-(1H-Benzoimidazol-2-yl)-1H-indazol-5-yl]-4-methyl-pyridin-3-yl}-methanol] |  | 
0.2 µM | 0.6 µM | 15% |  | Cc1c(CN(C)C)cncc1-c1ccc2[nH]nc(-c3nc4ccccc4[nH]3)c2c1 [Example 73, {5-[3-(1H-Benzoimidazol-2-yl)-1H-indazol-5-yl]-4-methyl-pyridin-3-ylmethyl}-dimethyl-amine] |  | 
0.2 µM | 0.48 µM | 31% |  | Cc1c(/C=C/CO)cncc1-c1ccc2[nH]nc(-c3nc4ccccc4[nH]3)c2c1 [Example 59, (E)-3-{5-[3-(1H-Benzoimidazol-2-yl)-1H-indazol-5-yl]-4-methyl-pyridin-3-yl}-prop-2-en-1-ol] |  | 
 |  | 51% |  | CCc1cncc(-c2ccc3[nH]nc(/C=C/c4ccccc4)c3c2)c1Cl [Example 46, 5-(4-Chloro-5-ethyl-pyridin-3-yl)-3-(E)-styryl-1H-indazole] |  | 
0.2 µM | 0.5 µM | 26% |  | Cc1c(CCCO)cncc1-c1ccc2[nH]nc(-c3nc4ccccc4[nH]3)c2c1 [Example 60, (E)-3-{5-[3-(1H-Benzoimidazol-2-yl)-1H-indazol-5-yl]-4-methyl-pyridin-3-yl}-propan-1-ol] |  | 
 |  | 14% |  | CCNCc1cncc(-c2ccc3[nH]nc(-c4nc5ccccc5[nH]4)c3c2)c1C [Example 74, {5-[3-(1H-Benzoimidazol-2-yl)-1H-indazol-5-yl]-4-methyl-pyridin-3-ylmethyl}-ethyl-amine] |  | 
0.18 µM | 0.8 µM | 6% |  | OCc1cccc2[nH]c(-c3n[nH]c4ccc(-c5cncc6ccccc56)cc34)nc12 [Example 29, [2-(5-Isoquinolin-4-yl-1H-indazol-3-yl)-1H-benzoimidazol-4-yl]-methanol] |  | 
